This note sets out measurements from patent US10801023B2, “Methods of identifying biologically active random peptides in plants and libraries of plants expressing candidate biologically active random peptides” (University of Florida Research Foundation, Inc., priority 2015, dated 2020).

Assay [1] has as its system Arabidopsis thaliana plants. In words: Screening of library of transformed plants expressing candidate BARPs for new phenotypes. The assay is classed as in vivo. The following applies: transgenic Arabidopsis thaliana expressing the BARP, scored from emergence to senescence. From the text:
In the present example, the methods of the present disclosure were used to generate a library of test nucleic acids encoding a plurality of candidate BARPs, each having a core 6 amino acid random peptide sequence flanked by two cysteine residues. The sequences were also flanked by start and stop codons and Gateway® sequences, such as illustrated in FIG. 1. PCR was used with primers corresponding to the known Gateway flanking sequences to generate the test nucleic acid library. The oligonucleotides were then cloned into bacterial vectors including genes for kanamycin resistance to create a recombination vector library. The vectors were then moved to Agrobacterium tumefaciens strain […] and used to transform Arabidopsis thaliana plants. Seeds were collected from the transformed plants and used to grow new plants. These plants were observed from seedling through the plant lifecycle and observed for new phenotypes. Several new phenotypes emerged, DNA was extracted from the plants displaying new phenotypes, and the sequence of the candidate BARP from the plants was determined. The procedures and results are described in detail below.
The test nucleic acid sequences were synthesized using conserved initiator and terminator sequences flanking 18 random nucleotides, which provides a peptide that is ten amino acids long, with six of the core amino acids randomized, following a Met-Ala-Cys and ending with a Cys-term. This template is illustrated in FIG. 1. In the present example, the corresponding nucleic acid sequence was […] (SEQ ID NO: 5; nucleotides 14-46 of SEQ ID NO: 1). The cysteine residues in this case provide potential for formation of disulfide bonds that may impart additional structure to the adjacent amino acid loop. Although in this example 18 random nucleotides (identified as “N” in SEQ ID NOs: 1 and 5) were used, any number may be used, as long as it is a multiple of three.
To construct the library of random-core BARP sequences, the above DNA sequence was synthesized as an oligonucleotide sequence, along with flanking sequences corresponding to the Gateway® recombination sequences. The middle portion of the sequence, represented by “N” in FIG. 1, were randomized nucleotides. Known synthesis techniques were used to build the sequences, resulting in a library of PCR products containing test nucleic acid sequences (start codon, spacer codon, cysteine codon, 18 random nucleotides encoding a core candidate BARP sequence, second cysteine codon, and stop codon) flanked by Gateway recombination sequences. Although Gateway® sequences were used in the present examples, other recombination cloning primer sequences could be used or specifically designed.
The library of PCR products containing random test sequences was amplified using PCR based on flanking primers containing Gateway recombination sequences. These reactions produced a population of PCR products each containing the core peptide test sequence flanked by Gateway recombination sequences. These PCR products were introduced to the vector pDONR222 using Gateway recombination, and then transformed into E. coli genotype DH5α. The transformation vector also included the NPTII gene for kanamycin resistance. The E. coli cells were plated on kanamycin plates at low density to obtain single-colony separation. The single colonies each contained a separate plasmid bearing a random peptide sequence.
The colonies were recovered from plates in liquid medium, and the plasmids were isolated. The isolated plasmids represented a library of many independent, random sequences (encoding candidate BARPs) flanked by ‘start’ and ‘stop’ sequences. […]

In assay [2] the test system is Arabidopsis thaliana plants. In words: Independent replication of peptide-induced phenotypes in independent transformant lines. The assay is classed as in vivo. The following applies: BARP sequence re-introduced into Arabidopsis thaliana. On the procedure:
A number of first-transformed generation plants were prepared and phenotypes were observed using the methods described in Example 1, above. In this example some 12-amino-acid-long candidate BARPs were also synthesized and tested. The procedures were the same as for the 6-aa BARPs described in Example 1. These phenotypes were also observed to be stable and inherited in subsequent generations. To verify that the effects observed are due to the expressed peptide and not to other less-likely positional/insertional causes, in this Example, a substantial number of the of the candidate 6 and 12 amino-acid-long BARPs were sequenced and separately transformed into independent plants. […] One microliter was used in a PCR reaction under standard conditions, and using primers corresponding to the attachment (recombinational cloning sequences) of the Gateway vector, the corresponding BARP sequences was amplified. This sequences were then recombined into the pDONR222 vector and then re-ligated into the binary pKWDG2 over-expression vector as described above. This sequence was then re-introduced into Arabidopsis thaliana plants using the floral dipping strategy and selection as noted above. The seedlings were then analyzed for the phenotype as defined by the original transformant. Recapitulation of the phenotype in multiple, independent transformation events provided high evidence of a specific physiological effect of the peptide.

In assay [3] the test system is Arabidopsis thaliana plants. In words: Quantitative analysis of flowering time of CBF6AA-15 transformant lines. Format: in vivo. The following applies: lines 26, 29, 31 versus wild type Col-0. From the text: FIG. 4A is a digital image comparing a wild type A. thaliana plant with 3 separate lines transformed with the 6AA-15 BARP. A bar graph comparing the number of rosette leaves for each line at the time of flowering is illustrated in FIG. 4B. FIGS. 4C-4F are a series of graphs illustrating quantitative analysis of flowering time for the plant lines illustrated in FIG. 4A, with a minimum of 113 plants analyzed per line.
The observed phenotype was also confirmed by the observed number of rosette leaves present on the plant at the time of flowering, where transformants flowered days earlier and after producing fewer leaves. […] A minimum of 113 plants were analyzed per line, and the number of days until flowering was recorded. FIGS. 4C-4F illustrate the distribution of flowering times of wild type plants vs. the three transformant lines, with the mean shifting from 36 days in wild-type plants to […] in the transgenic lines.

Assay [4] has as its system Arabidopsis plants. Put plainly: Plant growth and phenotyping of PEP6 / PEP12 transgenic plants. The assay is classed as in vivo, Arabidopsis thaliana. The following applies: transgenic plant in soil; normal-sized plants 25 mm to 30 mm. From the text: Two libraries encoding six- and twelve-random amino acid cyclized peptides (denoted PEP6 and PEP12, respectively) were constructed in binary vectors (as illustrated in FIG. 9) using a Gateway cloning strategy and transformed into Arabidopsis. More than 1,500 transgenic plants with the PEP6 T-DNA inserts were isolated and more than 600 transgenic plants were isolated carrying the PEP12 insert, representing a survival ratio of 1.8% and 1.2% respectively under kanamycin selection. To ensure library representation in the population, DNA was prepared from at least fifty transgenic plants, including ten that had small rosette diameter (5 mm to 10 mm) (e.g., those having BARP sequences SEQ ID NO: 14, 16, 6, 19, 21, 23, 26, 28, 30, and 32) compared to normal-sized plants (25 mm to 30 mm; see Table 2). The nucleotide sequences of all amplified random peptide open reading frames (rpORFs) were different, indicating representation of library diversity was maintained throughout the cloning and transformation process. Several phenotypes were visually apparent. […] Some plants showing multiple growth defects were recorded in each phenotype. Bolting plants with multiple inflorescences were transformed with the PEP6 or PEP12 destination library through the floral dipping method (Clough and Bent, 1998, incorporated herein by reference). For selection, seeds were surface sterilized by 70% ethanol for 5 min and 10% bleach for 20 min. Surface-sterilized seeds were plated on ½× MS basal medium with 0.5% Phyto Agar (cat. # M10200 and # A20300, Research Products International) and 50 μg/ml kanamycin for selection. Transgenic seedlings were identified by GFP expression or resistance to kanamycin. Transformed seedlings were grown to the 3-5 true leaf stage on plates and transferred to soil. DNA was extracted from each seedling (Edwards et al., 1991 incorporated herein by reference) for inserted nucleotide sequence identification. An approximately 500 bp DNA fragment containing the random peptide ORF and part of pK7WG2D vector sequence was amplified using primers PEP-F and PEP-R (SEQ ID NOs: 35 and 36, respectively) listed in Table 4 and sequenced. Arabidopsis plants were grown in soil at 20° C. under 16 hour light/8 hour dark conditions. The characterization of phenotypic variations was based on the comparison among seedlings grown in the same pot or flat.

Assay [5] relates to Arabidopsis plants. In words: Flowering time measurement. The assay is classed as in vivo, Arabidopsis thaliana. The text has this: The rpORF were cloned from this seedling PEP6-15 and retransformed into Col-0. A total of 15 independent transgenic lines were isolated and measured on their flowering time. About 75% independent lines had earlier flowering time compared to wild type plants. Thereafter three representative lines 1, 2 and 3, were chosen for detailed analyses (FIG. 11A). […] Thus, the BARP for PEP6-15 (SEQ ID NO: 6, nucleotide sequence SEQ ID NO: 17) appears to produce an earlier flowering time phenotype. […] Three independent PEP6-15 transgenic lines with no transgene segregation were grown directly in soil for the measurement of flowering time. Every line was planted in three 10 cm×10 cm×11 cm pots, and approximately twenty seeds were sown in each pot. The flowering time was recorded as the number of rosette leaves when the inflorescence stem was 0.5-1 cm long. When the majority of plants had flowered, measurement was concluded.

Assay [6] relates to Arabidopsis seedlings. Put plainly: Effects of lethal sequences: growth of PEP6-3 seedlings with or without sucrose. Format: in vivo, Arabidopsis thaliana. The text has this: If these seedlings were transplanted to media supplemented with 2% sucrose some of them survived. These surviving seedlings were genotyped. One of these seedlings grew on a sucrose plate for one month and in soil for another 2 months before bolting and setting seeds. The rpORF was re-cloned and transformed into Col-0 Arabidopsis to generate independent transformation lines. […] The T2 seeds from the original line and 5 independent lines were sown on a ½ MS plate with or without sucrose under kanamycin selection. Seeds on both types of media germinated at a rate of 95%. […] The effect of the peptide was tested in petunia. […] Thus, the BARP for PEP6-3 (SEQ ID NO: 14, nucleotide sequence SEQ ID NO: 13) appears to produce phenotype that requires sucrose media.
It is possible that the phenotypes observed were not related to the peptide sequence, but instead were artifacts of T-DNA integration, since insertion of the CaMV35S-bearing T-DNA cassette could potentially disrupt a gene where an effect could be observed in its heterozygous form, or the viral promoter could activate expression of neighboring genes, resulting in an observable phenotype. Thus, to generate a series of independent transformants for each sequence of interest, the random peptide ORFs from transgenic plants showing aberrant phenotypes were amplified using attB universal adaptor primers, and cloned into pDONR222 and pK7WG2D vectors via BP and LR reactions, respectively. These constructs were then transformed into Arabidopsis to generate additional independent transgenic lines. Each series of independent transgenic lines containing the same random peptide ORF were grown under the same conditions used to produce the original phenotype. Transcript abundance of the random peptide ORF and the control gene Ubiquitin family protein (UFP, At4g01000) in every transgenic line was analyzed by semi-quantitative RT-PCR using attB1 and attB2 adaptor primers or UFP-rF and -rR primers (SEQ ID NOs: 37-38), respectively.
The seedling was moved to media containing sucrose where it then developed normally. Five independent lines (1, 2, 3, 4 and 6) containing the PEP6-3 sequence (SEQ ID NO: 13) were grown under kanamycin selection on ½ MS medium with or without the supplement of 2% sucrose in dark for the first 7 d and then exposed to light. Without sucrose, some seedlings with only the two cotyledons or the first two true leaves died eventually, and only a few seedlings fully developed. The proportion of seedlings developed with the first two true leaves or fully developed was recorded.

The test system of assay [7] is Petunia hybrida. Put plainly: Petunia transformation with PEP6-3. The assay is classed as in vivo. The following applies: five independent transgenic shoots, versus controls. The method, then:
PEPS-3 was introduced into Petunia hybrida by Agrobacterium tumefaciens-mediated transformation of leaf fragments, following a modified protocol by Jorgensen et al, (1996), incorporated herein by reference. Leaves were dissected into 4×5 mm fragments and immersed in Agrobacterium solution for 15 min, then transferred to MS agar plates supplemented with TDZ (1 μg/mL), galacturonic add (212 μg/mL) and acetosyringone (8 μg/mL). After 2 d in darkness, explants were transferred to MS medium containing TDZ (1 μg/mL), carbenicillin (500 μg/mL) and kanamycin (150 μg/mL) for two weeks. Callusing explants were then transferred to light on MS medium containing only antibiotics. After the appearance of shoots, these were transferred to MS medium containing antibiotics and IBA (0.8 μg/mL), for root formation.

Setting [8] is: ½ MS plate without sucrose, kanamycin selection, T2 seeds.

“MACDFNFGIC (chemically synthesized peptide sequence of BARP CBF6AA-15 associated with early flowering behavior)”: in assay [1], the phenotype result was “tiny, slightly early flowering”. For the same sequence, the “phenotype in independent transformant lines” value in assay [2] was “significant early-flowering phenotype”. In assay [3], the “number of rosette leaves at the time of flowering” value is “fewer number of leaves at the time of flowering than the wild type”. This sequence gave a rosette size in assay [4] of 5 mm. Also, in assay [5] (lines 1, 2 and 3, inferred from rosette leaf number), the “bolting earlier than Col-0” value fell in the range of 3 to 4 days. In addition, the “number of rosette leaves when bolting” value in assay [5] (lines 1, 2 and 3, 16 hour light/8 hour dark, Col-0 11.5) is 10 rosette leaves.
Regarding “MACRGVDSAC (chemically synthesized peptide sequence of BARP PEP6-3) [BARP producing sucrose dependent phenotype]”, the rosette size in assay [4] came out at 5 mm. In addition, in assay [6] (20 independent transgenic lines versus control lines), the “size of independent transgenic lines” value is recorded as “grew smaller than control lines”. Moreover, the “development of germinated seeds on sucrose plates” value in assay [6] (½ MS plate with 2% sucrose) is given as “grew into fully-developed plants”. In assay [6] (½ MS plate with or without sucrose (both types of media)), this sequence returned a germination rate of 95%. In assay [6] (setting [8]), the “transgenic seedlings forming true leaves” value is given as less than 30% and the “transgenic seedlings growing into fully-developed plants” value was less than 10%. Also, the “growth of transgenic petunia shoots” value in assay [7] was “grew slowly compared to controls before turning pale and dying after several weeks”.
